Reference: US6761694B2, “Methods for measuring retinal damage” (Allergan, Inc., priority 2001, dated 2004)

Test system: retina exposed to laser (secondary retinal damage)
Test: Retinal thickness analysis (Retinal Thickness Analyzer) after laser photocoagulation in a patient with AMD
Assay type: in vivo, human
Excerpt: In order to calculate the slope of retinal thickness, the thickness of the retina must be measured. In practicing the methods of the invention, it is preferred that the retinal thickness be measured in situ as compared to histologically. Retinal thickness may be measured using publicly available devices generally configured to image optical cross-sections of the retina, and to digitally process the cross-sections to result in a measurement of retinal thickness. One such device used to practice the methods of the invention is the Retinal Thickness Analyzer ([…] Technology, Ltd., […] Zion, Israel) as disclosed in U.S. Pat. No. 6,267,477, entitled, “Three dimensional imaging apparatus and a method for use thereof”. Another device that may be used to measure retinal thickness in the methods of the invention is the Optical Coherence Tomography (OCT) Scanner (Humphrey Instruments, Inc., San Leandro, Calif.) and as described in U.S. Pat. No. 5,491,524, entitled, “Optical coherence tomography corneal mapping apparatus”. Another device that may be used to measure retinal thickness in practicing the methods of the invention is the Heidelberg Retina Tomograph (HRT; Heidelberg Engineering GmbH, Heidelberg, Germany) and as described in U.S. Pat. No. 5,170,276, entitled, “Apparatus for imaging an object”. The images obtained by such devices can then be examined, and the slope of retinal thickness measured. The slope of retinal thickness may be calculated as a ratio by measuring the change in retinal thickness as a function of distance between two or more points of the retina near the lesion site. The human retina is approximately 200-250 μm thick. Using the devices described above, it is possible to optically cross-section the retina in 20 μm increments. If the retinal thickness changes by 200 μm over a distance of 20 μm, the corresponding slope of retinal thickness would be 10. Similarly, if the retinal thickness changes 200 μm over a distance of 2 mm, the corresponding slope would be 0.1. In the foregoing examples, a slope of 10 indicates the retinal damage is less than the retinal damage where the slope of damage is 0.1. Persons skilled in the art will appreciate that the slope of retinal thickness may be calculated over any number of distances, and that the smallest distance is only limited by the resolution of the devices used to practice the methods of the invention. A person presents with blurred vision in their right eye with particular distorted images near the middle of their visual field. An ophthalmologist conducts an eye exam. […] The ophthalmologist detects the presence of an abnormal amount of soft drusen. A diagnosis of age-related macular degeneration (AMD) is made. […]

CC12CC3CC(C)(C1)CC(N)(C3)C2 [memantine]
secondary damage by retinal thickness analysis (memantine 0.25% w/v topically prior to laser treatment, after the surgery): little secondary damage | visual impairment on additional laser treatments (memantine 0.25% w/v topically, continued laser treatments): without significant visual impairment | change in retinal thickness (over a distance of about 40 μm, memantine 0.25% w/v topically prior to laser treatment, twenty-one days after laser surgery): 200 μm | slope of damage (slope of retinal thickness) (person with AMD, memantine 0.25% w/v topically prior to laser photocoagulation, scan twenty-one days after laser surgery): approximately 8
